For this assay, the target named is T1, human CDK9/CyclinT kinase complex (Homo sapiens, UniProt P50750).
T1 construct: purchased Proqinase 0371-0345-1
The assay can be described thus: In vitro CDK9/CyclinT assay (IMAP fluorescence polarization kinase assay). The class given is biochemical. The settings on record: for IC50: 5 nM CDK9/CyclinT, 400 nM TAMRA-Rbtide, 12 μM ATP, 1 hour at room temperature, read-out: CDK9 inhibitory range. As for the experimental part:
In Vitro CDK9/CyclinT Assay
The activity of the compounds described in the present invention can be determined by the following kinase assay, which measures the phosphorylation of a fluorescently-labeled peptide by human CDK9/CyclinT kinase complex by fluorescent polarization using a commercially available IMAP Screening Express Assay Kit (Molecular devices).
CDK9 kinase assays were performed in low protein binding 384-well plates (Corning 3676). Test compounds were diluted in 100% DMSO to 5 mM stock concentration, then further dilutions were made in H2O or 100% DMSO to desirable concentrations.
Each reaction consisted of 5 nM enzyme: CDK9/CyclinT (Proqinase cat#0371-0345-1), 400 nM TAMRA-Rbtide (synthetic 15-mer peptide derived from human retinoblastoma tumor suppressor protein labelled with TAMRA dye, Genecust Europe), 12 μM ATP (=Kmapp, Sigma-Aldrich) and kinase buffer: 20 mM MOPS pH 7 (Sigma-Aldrich), 1 mM DTT (Sigma-Aldrich), 10 mM MgCl2 (Sigma-Aldrich), 0.01% Tween 20 (Sigma-Aldrich).
For each reaction, 4 or 6 μl containing TAMRA-Rbtide, ATP and kianse buffer were combined with 2 μl diluted compound in H2O or 0.028 μl compound in 100% DMSO. The kinase reaction was started by the addition of 2 μl diluted enzyme. The reaction was allowed to run for 1 hours at room temperature. The reaction was stopped by adding 15 μl IMAP beads (1:400 beads in progressive (100% buffer A) 1× buffer). After an additional 1 hours, fluorescent polarization (Ex: 550-10 nm, Em: 590-10 nm, Dich: 561 nm) was measured using an Analyst GT (Molecular devices).
Background: In fluorescence polarisation assays a small probe gives low polarisation when free and higher when bound to something large.

These results are taken from patent US9040529B2 (Vichem Chemie Kutató Kft., priority 2009, dated 2015).

T1 sequence (P50750 whole entry): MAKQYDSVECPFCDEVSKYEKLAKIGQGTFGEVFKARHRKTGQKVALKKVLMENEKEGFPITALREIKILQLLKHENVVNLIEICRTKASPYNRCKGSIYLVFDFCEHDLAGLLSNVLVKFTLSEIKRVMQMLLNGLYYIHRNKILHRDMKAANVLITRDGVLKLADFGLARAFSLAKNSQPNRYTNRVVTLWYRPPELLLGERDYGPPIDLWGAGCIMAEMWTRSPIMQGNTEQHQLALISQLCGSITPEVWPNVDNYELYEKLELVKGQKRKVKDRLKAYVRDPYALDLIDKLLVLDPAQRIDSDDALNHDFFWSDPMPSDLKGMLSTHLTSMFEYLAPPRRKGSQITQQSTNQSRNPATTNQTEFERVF
T1 sequence (O60563 whole entry partner): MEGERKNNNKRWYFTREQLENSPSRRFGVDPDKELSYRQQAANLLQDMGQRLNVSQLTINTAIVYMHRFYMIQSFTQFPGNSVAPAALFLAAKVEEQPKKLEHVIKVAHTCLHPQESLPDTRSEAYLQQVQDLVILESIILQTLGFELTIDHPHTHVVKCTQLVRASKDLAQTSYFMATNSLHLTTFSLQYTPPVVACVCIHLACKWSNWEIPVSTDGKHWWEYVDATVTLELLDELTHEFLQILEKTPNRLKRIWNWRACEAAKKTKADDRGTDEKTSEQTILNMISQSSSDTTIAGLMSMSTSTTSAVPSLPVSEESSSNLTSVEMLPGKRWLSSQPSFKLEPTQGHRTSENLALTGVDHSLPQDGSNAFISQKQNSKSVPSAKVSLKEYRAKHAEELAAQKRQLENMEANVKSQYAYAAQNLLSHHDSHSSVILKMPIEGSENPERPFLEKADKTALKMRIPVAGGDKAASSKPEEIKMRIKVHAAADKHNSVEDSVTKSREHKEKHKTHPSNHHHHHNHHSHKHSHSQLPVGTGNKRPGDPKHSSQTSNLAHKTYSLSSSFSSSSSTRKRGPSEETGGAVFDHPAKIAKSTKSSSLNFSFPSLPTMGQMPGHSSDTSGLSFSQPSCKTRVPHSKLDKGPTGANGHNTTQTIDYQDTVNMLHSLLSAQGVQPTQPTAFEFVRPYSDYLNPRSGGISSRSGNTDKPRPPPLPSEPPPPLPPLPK

Consider `CS(=O)(=O)NCc1cccc(Nc2cc(Cl)ncn2)c1` [Example 1, N-[3-(6-Chloro-pyrimidin-4-ylamino)-benzyl]-methanesulfonamide], for which the IC50 is above 10 µM.

As to `CS(=O)(=O)NCc1cccc(Nc2cc(-c3ccccc3OCc3ccccc3)ncn2)c1` [Example 2, N-{3-[6-(2-Benzyloxy-phenyl)-pyrimidin-4-ylamino]-benzyl}-methanesulfonamide], the IC50 was below 1 µM. With `C=C(c1ccccc1)c1cc(Nc2cccc(CNS(C)(=O)=O)c2)ncn1` [Example 3], the IC50 is below 10 µM. For the compound `CS(=O)(=O)NCc1cccc(Nc2cc(-c3ccccc3Oc3ccccc3)ncn2)c1` [Example 4, N-{3-[6-(2-Phenoxy-phenyl)-pyrimidin-4-ylamino]-benzyl}-methanesulfonamide], the IC50 was below 1 µM. Take `CCOc1ccccc1-c1cc(Nc2cccc(CNS(C)(=O)=O)c2)ncn1` [Example 5, N-{3-[6-(2-Ethoxy-phenyl)-pyrimidin-4-ylamino]-benzyl}-methanesulfonamide]: the CDK9 inhibitory effect result is listed as “nanomolar or low nanomolar range” and the IC50 was below 0.1 µM. In the same order, the values of `COc1ccccc1-c1cc(Nc2cccc(CNS(C)(=O)=O)c2)ncn1` [Example 6, N-{3-[6-(2-Methoxy-phenyl)-pyrimidin-4-ylamino]-benzyl}-methanesulfonamide] are “nanomolar or low nanomolar range” and below 0.1 µM. In the same order, the values of `COc1cc(F)ccc1-c1cc(Nc2cccc(CNS(C)(=O)=O)c2)ncn1` [Example 7, N-{3-[6-(4-Fluoro-2-methoxy-phenyl)-pyrimidin-4-ylamino]-benzyl}-methanesulfonamide] are “nanomolar or low nanomolar range” and below 0.1 µM. In the case of `CC(C)Oc1ccccc1-c1cc(Nc2cccc(CNS(C)(=O)=O)c2)ncn1` [Example 8, N-{3-[6-(2-Isopropoxy-phenyl)-pyrimidin-4-ylamino]-benzyl}-methanesulfonamide], the IC50 is below 1 µM.

`COc1ccc(F)cc1-c1cc(Nc2cccc(CNS(C)(=O)=O)c2)ncn1` [Example 9, N-{3-[6-(5-Fluoro-2-methoxy-phenyl)-pyrimidin-4-ylamino]-benzyl}-methanesulfonamide]: the IC50 is below 1 µM. As for `CS(=O)(=O)NCc1cccc(Nc2cc(-c3ccccc3OCc3ccc(F)cc3)ncn2)c1` [Example 10, N-(3-{6-[2-(4-Fluoro-benzyloxy)-phenyl]-pyrimidin-4-ylamino}-benzyl)-methanesulfonamide], the IC50 was below 1 µM. On the same count and under the same terms, as for `Cc1ccccc1-c1cc(Nc2cccc(CNS(C)(=O)=O)c2)ncn1` [Example 11, N-[3-(6-o-Tolyl-pyrimidin-4-ylamino)-benzyl]-methanesulfonamide], the figure is below 10 µM; as for `CCc1ccccc1-c1cc(Nc2cccc(CNS(C)(=O)=O)c2)ncn1` [Example 12, N-{3-[6-(2-Ethyl-phenyl)-pyrimidin-4-ylamino]-benzyl}-methanesulfonamide], below 1 µM. On to `COc1cccc(F)c1-c1cc(Nc2cccc(CNS(C)(=O)=O)c2)ncn1` [Example 13, N-{3-[6-(2-Fluoro-6-methoxy-phenyl)-pyrimidin-4-ylamino]-benzyl}-methanesulfonamide], for which the CDK9 inhibitory effect result is given as “nanomolar or low nanomolar range” and the IC50 was below 0.1 µM.

Regarding `CC(C)Oc1cc(F)ccc1-c1cc(Nc2cccc(CNS(C)(=O)=O)c2)ncn1` [Example 14, N-{3-[6-(4-Fluoro-2-isopropoxy-phenyl)-pyrimidin-4-ylamino]-benzyl}-methanesulfonamide], the IC50 is below 1 µM. Still for that read-out and setting: as for `CS(=O)(=O)NCc1cccc(Nc2cc(-c3ccccc3OC(F)(F)F)ncn2)c1` [Example 15, N-{3-[6-(2-Trifluoromethoxy-phenyl)-pyrimidin-4-ylamino]-benzyl}-methanesulfonamide], the figure is below 10 µM.

Regarding `CS(=O)(=O)NCc1cccc(Nc2cc(-c3ccccc3F)ncn2)c1` [Example 16, N-{3-[6-(2-Fluoro-phenyl)-pyrimidin-4-ylamino]-benzyl}-methanesulfonamide], the IC50 is below 10 µM. As to `CS(=O)(=O)NCc1cccc(Nc2cc(-c3ccc(F)cc3F)ncn2)c1` [Example 17, N-{3-[6-(2,4-Difluoro-phenyl)-pyrimidin-4-ylamino]-benzyl}-methanesulfonamide], the IC50 is below 10 µM. Still for that read-out and setting: as for `CS(=O)(=O)NCc1cccc(Nc2cc(-c3ccccc3C(F)(F)F)ncn2)c1` [Example 18, N-{3-[6-(2-Trifluoromethyl-phenyl)-pyrimidin-4-ylamino]-benzyl}-methanesulfonamide], the figure is above 10 µM. The same measure, in the same setting: as for `COc1ccc(-c2cc(Nc3cccc(CNS(C)(=O)=O)c3)ncn2)cc1` [Example 19, N-{3-[6-(4-Methoxy-phenyl)-pyrimidin-4-ylamino]-benzyl}-methanesulfonamide], the figure is below 10 µM. On the same count and under the same terms, as for `CS(=O)(=O)NCc1cccc(Nc2cc(-c3cccc(C(N)=O)c3)ncn2)c1` [Example 20, 3-{6-[3-(Methanesulfonylamino-methyl)-phenylamino]-pyrimidin-4-yl}-benzamide], the figure is below 10 µM; as for `CS(=O)(=O)NCc1cccc(Nc2cc(-c3ccccc3)ncn2)c1` [Example 21, N-[3-(6-Phenyl-pyrimidin-4-ylamino)-benzyl]-methanesulfonamide], below 10 µM. Regarding `CS(=O)(=O)NCc1cccc(Nc2cc(-c3cccc(N)c3)ncn2)c1` [Example 22, N-{3-[6-(3-Amino-phenyl)-pyrimidin-4-ylamino]-benzyl}-methanesulfonamide], the IC50 is below 1 µM.

For the compound `COc1cccc(-c2cc(Nc3cccc(CNS(C)(=O)=O)c3)ncn2)c1OC` [Example 23, N-{3-[6-(2,3-Dimethoxy-phenyl)-pyrimidin-4-ylamino]-benzyl}-methanesulfonamide], the IC50 is below 1 µM. On the same count and under the same terms, as for `COc1ccc(-c2cc(Nc3cccc(CNS(C)(=O)=O)c3)ncn2)c(OC)c1` [Example 24, N-{3-[6-(2,4-Dimethoxy-phenyl)-pyrimidin-4-ylamino]-benzyl}-methanesulfonamide], the figure is below 1 µM; as for `COc1cc(Cl)ccc1-c1cc(Nc2cccc(CNS(C)(=O)=O)c2)ncn1` [Example 25, N-{3-[6-(4-Chloro-2-methoxy-phenyl)-pyrimidin-4-ylamino]-benzyl}-methanesulfonamide], below 1 µM; as for `COc1ccc(C)cc1-c1cc(Nc2cccc(CNS(C)(=O)=O)c2)ncn1` [Example 26, N-{3-[6-(2-Methoxy-5-methyl-phenyl)-pyrimidin-4-ylamino]-benzyl}-methanesulfonamide], below 10 µM. On the same count and under the same terms, as for `CS(=O)(=O)NCc1cccc(Nc2cc(-c3cccc4c3OCO4)ncn2)c1` [Example 27, N-[3-(6-Benzo[1,3]dioxol-4-yl-pyrimidin-4-ylamino)-benzyl]-methanesulfonamide], the figure is below 1 µM; as for `CSc1ccccc1-c1cc(Nc2cccc(CNS(C)(=O)=O)c2)ncn1` [Example 28, N-{3-[6-(2-Methylsulfanyl-phenyl)-pyrimidin-4-ylamino]-benzyl}-methanesulfonamide], below 1 µM; as for `C[S+]([O-])c1ccccc1-c1cc(Nc2cccc(CNS(C)(=O)=O)c2)ncn1` (stereo not drawn) [Example 29, N-{3-[6-(2-Methanesulfinyl-phenyl)-pyrimidin-4-ylamino]-benzyl}-methanesulfonamide], below 10 µM.
